Data: ChEMBL document CHEMBL1949621, “Fluorocyclines. 1. 7-fluoro-9-pyrrolidinoacetamido-6-demethyl-6-deoxytetracycline: a potent, broad spectrum antibacterial agent” (J Med Chem, 2012)
Values after ≈ are worked out from the molar mass of the structure shown.

Columns and labels:
Assay type in all cases: functional
Staphylococcus aureus [1] = assay: Antibacterial activity against Staphylococcus aureus ATCC 101 29213
Staphylococcus aureus [2] = assay: Antibacterial activity against tetracycline- and methicillin-resistant Staphylococcus aureus 161
Staphylococcus aureus [3] = assay: microbe, parasite or virus in culture; conditions: 158
Enterococcus faecalis [4] = assay: Antibacterial activity against Enterococcus faecalis ATCC 103 29212
Enterococcus faecalis [5] = assay: Antibacterial activity against tetracycline-resistant Enterococcus faecalis 159
Streptococcus pneumoniae [6] = assay: microbe, parasite or virus in culture; conditions: ATCC 106 49619
Description: Antibacterial activity against Streptococcus pneumoniae ATCC 106 49619

Streptococcus pneumoniae [7] = assay: Antibacterial activity against tetracycline-resistant Streptococcus pneumoniae 160
Escherichia coli [8] = assay: Antibacterial activity against Escherichia coli ATCC 107 25922
Escherichia coli [9] = assay: Antibacterial activity against tetracycline-resistant Escherichia coli 155
Acinetobacter baumannii = assay: Antibacterial activity against Acinetobacter baumannii ATCC 19606 110
Pseudomonas aeruginosa = assay: Antibacterial activity against Pseudomonas aeruginosa ATCC 111 27853
Enterobacter cloacae = assay: Antibacterial activity against Enterobacter cloacae ATCC 108 13047
Klebsiella pneumoniae [10] = assay: Antibacterial activity against Klebsiella pneumoniae ATCC 109 13883
Klebsiella pneumoniae [11] = assay: Antibacterial activity against tetracycline-resistant Klebsiella pneumoniae 153

CN(C)[C@@H]1C(O)=C(C(N)=O)C(=O)[C@@]2(O)C(O)=C3C(=O)c4c(O)c(NC(=O)CN5CC6CCCC6C5)cc(F)c4C[C@H]3C[C@@H]12 (stereo partly specified)
MIC (Staphylococcus aureus [1]): 0.5 µg/mL (≈ 0.835 µM)
MIC (Staphylococcus aureus [2]): 1 µg/mL (≈ 1.67 µM)
MIC (Staphylococcus aureus [3]): 0.5 µg/mL (≈ 0.835 µM)
MIC (Enterococcus faecalis [4]): 0.25 µg/mL (≈ 0.418 µM)
MIC (Enterococcus faecalis [5]): 0.5 µg/mL (≈ 0.835 µM)
MIC (Streptococcus pneumoniae [6]): 0.125 µg/mL (≈ 0.209 µM)
MIC (Streptococcus pneumoniae [7]): 0.06 µg/mL (≈ 0.1 µM)
MIC (Escherichia coli [8]): 1 µg/mL (≈ 1.67 µM)
MIC (Escherichia coli [9]): 2 µg/mL (≈ 3.34 µM)
MIC (Acinetobacter baumannii): 0.06 µg/mL (≈ 0.1 µM)
MIC (Pseudomonas aeruginosa): > 32 µg/mL
MIC (Enterobacter cloacae): 4 µg/mL (≈ 6.68 µM)
MIC (Klebsiella pneumoniae [10]): 2 µg/mL (≈ 3.34 µM)
MIC (Klebsiella pneumoniae [11]): 4 µg/mL (≈ 6.68 µM)

CN(C)[C@@H]1C(O)=C(C(N)=O)C(=O)[C@@]2(O)C(O)=C3C(=O)c4c(O)c(NC(=O)CN5CC[C@@H](O)C5)cc(F)c4C[C@H]3C[C@@H]12
MIC (Staphylococcus aureus [1]): 2 µg/mL (≈ 3.48 µM)
MIC (Staphylococcus aureus [2]): 2 µg/mL (≈ 3.48 µM)
MIC (Staphylococcus aureus [3]): 16 µg/mL (≈ 27.8 µM)
MIC (Enterococcus faecalis [4]): 2 µg/mL (≈ 3.48 µM)
MIC (Enterococcus faecalis [5]): 2 µg/mL (≈ 3.48 µM)
MIC (Streptococcus pneumoniae [6]): 0.25 µg/mL (≈ 0.435 µM)
MIC (Streptococcus pneumoniae [7]): 0.5 µg/mL (≈ 0.87 µM)
MIC (Escherichia coli [8]): 4 µg/mL (≈ 6.96 µM)
MIC (Escherichia coli [9]): > 32 µg/mL
MIC (Acinetobacter baumannii): 32 µg/mL (≈ 55.7 µM)
MIC (Pseudomonas aeruginosa): > 32 µg/mL
MIC (Enterobacter cloacae): 16 µg/mL (≈ 27.8 µM)
MIC (Klebsiella pneumoniae [10]): 16 µg/mL (≈ 27.8 µM)
MIC (Klebsiella pneumoniae [11]): > 32 µg/mL

CN(C)[C@@H]1C(O)=C(C(N)=O)C(=O)[C@@]2(O)C(O)=C3C(=O)c4c(O)c(NC(=O)CN5CCOCC5)cc(F)c4C[C@H]3C[C@@H]12
MIC (Staphylococcus aureus [1]): 4 µg/mL (≈ 6.96 µM)
MIC (Staphylococcus aureus [2]): 8 µg/mL (≈ 13.9 µM)
MIC (Staphylococcus aureus [3]): 8 µg/mL (≈ 13.9 µM)
MIC (Enterococcus faecalis [4]): 8 µg/mL (≈ 13.9 µM)
MIC (Enterococcus faecalis [5]): 8 µg/mL (≈ 13.9 µM)
MIC (Streptococcus pneumoniae [6]): 0.5 µg/mL (≈ 0.87 µM)
MIC (Streptococcus pneumoniae [7]): 1 µg/mL (≈ 1.74 µM)
MIC (Escherichia coli [8]): > 32 µg/mL
MIC (Escherichia coli [9]): > 32 µg/mL
MIC (Acinetobacter baumannii): 8 µg/mL (≈ 13.9 µM)
MIC (Pseudomonas aeruginosa): > 32 µg/mL
MIC (Enterobacter cloacae): > 32 µg/mL
MIC (Klebsiella pneumoniae [10]): > 32 µg/mL
MIC (Klebsiella pneumoniae [11]): > 32 µg/mL

CN(C)[C@@H]1C(O)=C(C(N)=O)C(=O)[C@@]2(O)C(O)=C3C(=O)c4c(O)c(NC(=O)CNc5ccccc5)cc(F)c4C[C@H]3C[C@@H]12
MIC (Staphylococcus aureus [1]): 2 µg/mL (≈ 3.44 µM)
MIC (Staphylococcus aureus [2]): 4 µg/mL (≈ 6.89 µM)
MIC (Staphylococcus aureus [3]): 2 µg/mL (≈ 3.44 µM)
MIC (Enterococcus faecalis [4]): 2 µg/mL (≈ 3.44 µM)
MIC (Enterococcus faecalis [5]): 2 µg/mL (≈ 3.44 µM)
MIC (Streptococcus pneumoniae [6]): 2 µg/mL (≈ 3.44 µM)
MIC (Streptococcus pneumoniae [7]): > 4 µg/mL
MIC (Escherichia coli [8]): > 32 µg/mL
MIC (Escherichia coli [9]): > 32 µg/mL
MIC (Acinetobacter baumannii): > 8 µg/mL
MIC (Pseudomonas aeruginosa): > 32 µg/mL
MIC (Enterobacter cloacae): > 32 µg/mL
MIC (Klebsiella pneumoniae [10]): > 32 µg/mL
MIC (Klebsiella pneumoniae [11]): > 32 µg/mL

CN(C)[C@@H]1C(O)=C(C(N)=O)C(=O)[C@@]2(O)C(O)=C3C(=O)c4c(O)c(NC(=O)CN5CC[C@@H](F)C5)cc(F)c4C[C@H]3C[C@@H]12
MIC (Staphylococcus aureus [1]): 0.25 µg/mL (≈ 0.434 µM)
MIC (Staphylococcus aureus [2]): 0.5 µg/mL (≈ 0.867 µM)
MIC (Staphylococcus aureus [3]): 0.5 µg/mL (≈ 0.867 µM)
MIC (Enterococcus faecalis [4]): 0.125 µg/mL (≈ 0.217 µM)
MIC (Enterococcus faecalis [5]): 0.25 µg/mL (≈ 0.434 µM)
MIC (Streptococcus pneumoniae [6]): 0.0156 µg/mL (≈ 0.0271 µM)
MIC (Streptococcus pneumoniae [7]): 0.0156 µg/mL (≈ 0.0271 µM)
MIC (Escherichia coli [8]): 1 µg/mL (≈ 1.73 µM)
MIC (Escherichia coli [9]): 16 µg/mL (≈ 27.8 µM)
MIC (Acinetobacter baumannii): 0.25 µg/mL (≈ 0.434 µM)
MIC (Pseudomonas aeruginosa): > 32 µg/mL
MIC (Enterobacter cloacae): 8 µg/mL (≈ 13.9 µM)
MIC (Klebsiella pneumoniae [10]): 4 µg/mL (≈ 6.94 µM)
MIC (Klebsiella pneumoniae [11]): 8 µg/mL (≈ 13.9 µM)

CN(C)[C@@H]1C(O)=C(C(N)=O)C(=O)[C@@]2(O)C(O)=C3C(=O)c4c(O)c(NC(=O)CNCC(F)(F)F)cc(F)c4C[C@H]3C[C@@H]12
MIC (Staphylococcus aureus [1]): 1 µg/mL (≈ 1.71 µM)
MIC (Staphylococcus aureus [2]): 2 µg/mL (≈ 3.41 µM)
MIC (Staphylococcus aureus [3]): 4 µg/mL (≈ 6.82 µM)
MIC (Enterococcus faecalis [4]): 2 µg/mL (≈ 3.41 µM)
MIC (Enterococcus faecalis [5]): 4 µg/mL (≈ 6.82 µM)
MIC (Streptococcus pneumoniae [6]): 0.5 µg/mL (≈ 0.853 µM)
MIC (Streptococcus pneumoniae [7]): 1 µg/mL (≈ 1.71 µM)
MIC (Escherichia coli [8]): > 16 µg/mL
MIC (Escherichia coli [9]): > 32 µg/mL
MIC (Acinetobacter baumannii): > 2 µg/mL
MIC (Pseudomonas aeruginosa): > 32 µg/mL
MIC (Enterobacter cloacae): > 32 µg/mL
MIC (Klebsiella pneumoniae [10]): 32 µg/mL (≈ 54.6 µM)
MIC (Klebsiella pneumoniae [11]): > 32 µg/mL

COCCNCC(=O)Nc1cc(F)c2c(c1O)C(=O)C1=C(O)[C@]3(O)C(=O)C(C(N)=O)=C(O)[C@@H](N(C)C)[C@@H]3C[C@@H]1C2
MIC (Staphylococcus aureus [1]): 0.25 µg/mL (≈ 0.444 µM)
MIC (Staphylococcus aureus [2]): 0.5 µg/mL (≈ 0.889 µM)
MIC (Staphylococcus aureus [3]): 4 µg/mL (≈ 7.11 µM)
MIC (Enterococcus faecalis [4]): 0.125 µg/mL (≈ 0.222 µM)
MIC (Enterococcus faecalis [5]): 1 µg/mL (≈ 1.78 µM)
MIC (Streptococcus pneumoniae [6]): 0.0156 µg/mL (≈ 0.0277 µM)
MIC (Streptococcus pneumoniae [7]): 0.0625 µg/mL (≈ 0.111 µM)
MIC (Escherichia coli [8]): 1 µg/mL (≈ 1.78 µM)
MIC (Escherichia coli [9]): 16 µg/mL (≈ 28.4 µM)
MIC (Acinetobacter baumannii): 2 µg/mL (≈ 3.56 µM)
MIC (Pseudomonas aeruginosa): 16 µg/mL (≈ 28.4 µM)
MIC (Enterobacter cloacae): 4 µg/mL (≈ 7.11 µM)
MIC (Klebsiella pneumoniae [10]): 2 µg/mL (≈ 3.56 µM)
MIC (Klebsiella pneumoniae [11]): 8 µg/mL (≈ 14.2 µM)

COC[C@@H]1CCCN1CC(=O)Nc1cc(F)c2c(c1O)C(=O)C1=C(O)[C@]3(O)C(=O)C(C(N)=O)=C(O)[C@@H](N(C)C)[C@@H]3C[C@@H]1C2
MIC (Staphylococcus aureus [1]): 1 µg/mL (≈ 1.66 µM)
MIC (Staphylococcus aureus [2]): 2 µg/mL (≈ 3.32 µM)
MIC (Staphylococcus aureus [3]): 1 µg/mL (≈ 1.66 µM)
MIC (Enterococcus faecalis [4]): 1 µg/mL (≈ 1.66 µM)
MIC (Enterococcus faecalis [5]): 2 µg/mL (≈ 3.32 µM)
MIC (Streptococcus pneumoniae [6]): 0.125 µg/mL (≈ 0.207 µM)
MIC (Streptococcus pneumoniae [7]): 0.125 µg/mL (≈ 0.207 µM)
MIC (Escherichia coli [8]): 4 µg/mL (≈ 6.64 µM)
MIC (Escherichia coli [9]): 16 µg/mL (≈ 26.6 µM)
MIC (Acinetobacter baumannii): 0.5 µg/mL (≈ 0.83 µM)
MIC (Pseudomonas aeruginosa): > 32 µg/mL
MIC (Enterobacter cloacae): 16 µg/mL (≈ 26.6 µM)
MIC (Klebsiella pneumoniae [10]): 8 µg/mL (≈ 13.3 µM)
MIC (Klebsiella pneumoniae [11]): 16 µg/mL (≈ 26.6 µM)

CN(C)[C@@H]1C(O)=C(C(N)=O)C(=O)[C@@]2(O)C(O)=C3C(=O)c4c(O)c(NC(=O)CNc5cccnc5)cc(F)c4C[C@H]3C[C@@H]12
MIC (Staphylococcus aureus [1]): 4 µg/mL (≈ 6.88 µM)
MIC (Staphylococcus aureus [2]): > 32 µg/mL
MIC (Staphylococcus aureus [3]): > 32 µg/mL
MIC (Enterococcus faecalis [4]): 8 µg/mL (≈ 13.8 µM)
MIC (Enterococcus faecalis [5]): > 32 µg/mL
MIC (Streptococcus pneumoniae [6]): 0.25 µg/mL (≈ 0.43 µM)
MIC (Streptococcus pneumoniae [7]): 2 µg/mL (≈ 3.44 µM)
MIC (Escherichia coli [8]): 16 µg/mL (≈ 27.5 µM)
MIC (Escherichia coli [9]): > 32 µg/mL
MIC (Acinetobacter baumannii): > 8 µg/mL
MIC (Pseudomonas aeruginosa): > 32 µg/mL
MIC (Enterobacter cloacae): > 32 µg/mL
MIC (Klebsiella pneumoniae [10]): 32 µg/mL (≈ 55 µM)
MIC (Klebsiella pneumoniae [11]): > 32 µg/mL
